Molecular target: T1, human mGlu5a receptor (Homo sapiens, UniProt P41594)
T1 construct: expressed in transfected cells
Experiment: Intracellular Ca2+ mobilization assay (mGlu5 PAM)
Type: cell-based
Conditions: for Emax: HEK293, maximal response in % of the maximal stimulatory effect obtained with saturating concentrations of L-glutamate, HEK-293 human mGlu5a cells, read-out: Eff. (%); for EC50: HEK-293 cells stably transfected with human mGlu5a receptor, L-glutamate added at EC20 (typically around 80 μM) after 10-30 min pre-incubation with test compound, read-out: EC50 (nM) mGlu5PAM
Experimental: A monoclonal HEK-293 cell line stably transfected with a cDNA encoding for the human mGlu5a receptor was generated; for the work with mGlu5 Positive Allosteric Modulators (PAMs), a cell line with low receptor expression levels and low constitutive receptor activity was selected to allow the differentiation of agonistic versus PAM activity. Cells were cultured according to standard protocols (Freshney, 2000) in Dulbecco's Modified Eagle Medium with high glucose supplemented with 1 mM glutamine, 10% (vol/vol) heat-inactivated bovine calf serum, Penicillin/Streptomycin, 50 μg/ml hygromycin and 15 μg/ml blasticidin (all cell culture reagents and antibiotics from Invitrogen, Basel, Switzerland).
About 24 hrs before an experiment, 5×10^4 cells/well were seeded in poly-D-lysine coated, black/clear-bottomed 96-well plates. The cells were loaded with 2.5 μM Fluo-4AM in loading buffer (1×HBSS, 20 mM HEPES) for 1 hr at 37° C. and washed five times with loading buffer. The cells were transferred into a Functional Drug Screening System 7000 (Hamamatsu, Paris, France), and 11 half logarithmic serial dilutions of test compound at 37° C. were added and the cells were incubated for 10-30 min with on-line recording of fluorescence. Following this pre-incubation step, the agonist L-glutamate was added to the cells at a concentration corresponding to EC20 (typically around 80 μM) with on-line recording of fluorescence; in order to account for day-to-day variations in the responsiveness of cells, the EC20 of glutamate was determined immediately ahead of each experiment by recording of a full dose-response curve of glutamate.
Responses were measured as peak increase in fluorescence minus basal (i.e. fluorescence without addition of L-glutamate), normalized to the maximal stimulatory effect obtained with saturating concentrations of L-glutamate. Graphs were plotted with the % maximal stimulatory using XLfit, a curve fitting program that iteratively plots the data using Levenburg Marquardt algorithm. The single site competition analysis equation used was y=A+((B−A)/(1+((x/C)D))), where y is the % maximal stimulatory effect, A is the minimum y, B is the maximum y, C is the EC50, x is the log 10 of the concentration of the competing compound and D is the slope of the curve (the Hill Coefficient). From these curves the EC50 (concentration at which half maximal stimulation was achieved), the Hill coefficient as well as the maximal response in % of the maximal stimulatory effect obtained with saturating concentrations of L-glutamate were calculated.
A depression of the signal observed after addition of the EC20 concentration of L-glutamate was indicative of an inhibitory activity of the test compound.

T1 sequence (P41594 21-1180 isoform P41594-2 limits assumed): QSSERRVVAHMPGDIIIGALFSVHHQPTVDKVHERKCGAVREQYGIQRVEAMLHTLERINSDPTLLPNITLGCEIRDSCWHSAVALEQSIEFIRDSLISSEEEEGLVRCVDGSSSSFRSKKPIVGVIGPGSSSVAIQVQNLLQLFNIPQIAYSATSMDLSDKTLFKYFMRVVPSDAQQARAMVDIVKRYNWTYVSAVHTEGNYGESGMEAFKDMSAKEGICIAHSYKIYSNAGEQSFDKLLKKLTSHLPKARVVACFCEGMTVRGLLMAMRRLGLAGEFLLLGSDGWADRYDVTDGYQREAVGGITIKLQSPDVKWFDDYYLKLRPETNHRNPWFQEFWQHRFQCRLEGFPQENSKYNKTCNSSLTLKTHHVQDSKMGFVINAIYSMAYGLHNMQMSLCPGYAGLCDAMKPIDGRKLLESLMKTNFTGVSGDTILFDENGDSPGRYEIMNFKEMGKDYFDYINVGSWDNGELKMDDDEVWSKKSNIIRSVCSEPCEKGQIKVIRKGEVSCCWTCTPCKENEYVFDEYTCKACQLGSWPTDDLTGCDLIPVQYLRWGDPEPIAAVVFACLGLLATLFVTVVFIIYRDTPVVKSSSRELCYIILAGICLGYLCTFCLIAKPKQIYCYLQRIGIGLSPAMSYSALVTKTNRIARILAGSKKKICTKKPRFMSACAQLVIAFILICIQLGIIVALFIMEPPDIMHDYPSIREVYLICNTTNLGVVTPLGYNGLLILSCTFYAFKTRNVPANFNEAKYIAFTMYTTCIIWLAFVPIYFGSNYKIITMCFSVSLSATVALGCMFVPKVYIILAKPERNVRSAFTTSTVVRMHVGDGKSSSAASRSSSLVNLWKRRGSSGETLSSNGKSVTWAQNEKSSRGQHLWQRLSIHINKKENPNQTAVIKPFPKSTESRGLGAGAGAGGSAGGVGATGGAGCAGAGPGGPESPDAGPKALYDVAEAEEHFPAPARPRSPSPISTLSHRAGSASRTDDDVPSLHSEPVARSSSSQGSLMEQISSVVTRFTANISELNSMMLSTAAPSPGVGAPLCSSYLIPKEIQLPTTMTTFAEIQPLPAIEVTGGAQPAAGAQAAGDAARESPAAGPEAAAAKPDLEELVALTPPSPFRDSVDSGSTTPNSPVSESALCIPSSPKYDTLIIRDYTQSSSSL

Emax	EC50	Structure (SMILES)
50%	60 nM	CN(C(=O)c1ccc(C#Cc2ccc(F)c(F)c2)cn1)C1(C)COC1 [Example 30, 5-(3,4-Difluoro-phenylethynyl)-pyridine-2-carboxylic Acid methyl-(3-methyl-oxetan-3-yl)-amide]
69%	34 nM	CN(C(=O)c1ncc(C#Cc2ccc(F)cc2)cn1)C(C)(C)C [Example 11, 5-(4-Fluoro-phenylethynyl)-pyrimidine-2-carboxylic Acid tert-butyl-methyl-amide]
37%	93 nM	CC1(C)CN(C(=O)c2ccc(C#Cc3ccc(F)cc3)cn2)CCC1O (racemic) [Example 40, (RS)-[5-(4-Fluoro-phenylethynyl)-pyridin-2-yl]-(4-hydroxy-3,3-dimethyl-piperidin-1-yl)-methanone]
54%	18 nM	CN(C(=O)c1ncc(C#Cc2cccc(F)c2)cc1F)C(C)(C)C [Example 21, 3-Fluoro-5-(3-fluoro-phenylethynyl)-pyridine-2-carboxylic Acid tert-butyl-methyl-amide]
30%	57 nM	CC(C)(NC(=O)c1ncc(C#Cc2ccnc(Cl)c2)cn1)C(F)(F)F [Example 58, 5-(2-Chloro-pyridin-4-ylethynyl)-pyrimidine-2-carboxylic Acid (2,2,2-trifluoro-1,1-dimethyl-ethyl)-amide]
96%	34 nM	CN(C(=O)c1ncc(C#Cc2ccccc2)cc1C#N)C(C)(C)C [Example 52, 3-Cyano-5-phenylethynyl-pyridine-2-carboxylic Acid tert-butyl-methyl-amide]
95%	111 nM	CC(C)(C)NC(=O)c1ncc(C#Cc2cccc(Cl)c2)cn1 [Example 14, 5-(3-Chloro-phenylethynyl)-pyrimidine-2-carboxylic Acid tert-butylamide]
46%	27 nM	Cc1cccc(C#Cc2ccc(C(=O)N(C)C3(C(F)(F)F)CC3)nc2)c1 [Example 34, 5-m-Tolylethynyl-pyridine-2-carboxylic Acid methyl-(1-trifluoromethyl-cyclopropyl)-amide]
49%	37 nM	Cc1cc(C#Cc2cccc(F)c2)cnc1C(=O)N(C)C(C)(C)C [Example 17, 5-(3-Fluoro-phenylethynyl)-3-methyl-pyridine-2-carboxylic Acid tert-butyl-methyl-amide]
79%	62 nM	CN(C(=O)c1ccc(C#Cc2cncc(F)c2)cn1)C(C)(C)C [Example 8, 5-(5-Fluoro-pyridin-3-ylethynyl)-pyridine-2-carboxylic Acid tert-butyl-methyl-amide]
42%	12 nM	CN(C(=O)c1ccc(C#Cc2cc(F)ccc2F)cn1)C(C)(C)C [Example 5, 5-(2,5-Difluoro-phenylethynyl)-pyridine-2-carboxylic Acid tert-butyl-methyl-amide]
87%	19 nM	CN(C(=O)c1ccc(C#Cc2ccccc2)cn1)C(C)(C)C [Example 2, 5-Phenylethynyl-pyridine-2-carboxylic Acid tert-butyl-methyl-amide]
43%	17 nM	CN(C(=O)c1ccc(C#Cc2cccc(F)c2)cn1)C1(C)CC1 [Example 31, 5-(3-Fluoro-phenylethynyl)-pyridine-2-carboxylic Acid methyl-(1-methyl-cyclopropyl)-amide]
42%	22 nM	CC(NC(=O)c1ccc(C#Cc2ccnc(Cl)c2)cn1)C(F)(F)F (racemic) [Example 57, (RS)-5-(2-Chloro-pyridin-4-ylethynyl)-pyridine-2-carboxylic Acid (2,2,2-trifluoro-1-methyl-ethyl)-amide]
37%	33 nM	CN(C(=O)c1ccc(C#Cc2cccc(Cl)c2)cn1)C1(C(F)(F)F)CC1 [Example 33, 5-(3-Chloro-phenylethynyl)-pyridine-2-carboxylic Acid methyl-(1-trifluoromethyl-cyclopropyl)-amide]
45%	72 nM	CC1(C)CN(C(=O)c2ccc(C#Cc3cccc(F)c3)cn2)CCC1O (racemic) [Example 41, (RS)-[5-(3-Fluoro-phenylethynyl)-pyridin-2-yl]-(4-hydroxy-3,3-dimethyl-piperidin-1-yl)-methanone]
68%	37 nM	CN(C(=O)c1ccc(C#Cc2ccc(F)cc2)cn1)C1(C)COC1 [Example 28, 5-(4-Fluoro-phenylethynyl)-pyridine-2-carboxylic Acid methyl-(3-methyl-oxetan-3-yl)-amide]
83%	18 nM	CN(C(=O)c1ccc(C#Cc2ccc(F)cc2)cn1)C(C)(C)C [Example 4, 5-(4-Fluoro-phenylethynyl)-pyridine-2-carboxylic Acid tert-butyl-methyl-amide]
67%	40 nM	CN(C(=O)c1ncc(C#Cc2ccccc2)cc1F)C1(C)COC1 [Example 50, 3-Fluoro-5-phenylethynyl-pyridine-2-carboxylic Acid methyl-(3-methyl-oxetan-3-yl)-amide]
80%	43 nM	O=C(NC1COC1)c1ccc(C#Cc2cccc(F)c2)cn1 [Example 26, 5-(3-Fluoro-phenylethynyl)-pyridine-2-carboxylic Acid oxetan-3-ylamide]
59%	24 nM	CN(C(=O)c1ccc(C#Cc2ccc(F)cc2)cn1)C1(C)CC1 [Example 32, 5-(4-Fluoro-phenylethynyl)-pyridine-2-carboxylic Acid methyl-(1-methyl-cyclopropyl)-amide]
83%	61 nM	CC(NC(=O)c1ccc(C#Cc2cccc(Cl)c2)cn1)C(F)(F)F (racemic) [Example 61, (RS)-5-(3-Chloro-phenylethynyl)-pyridine-2-carboxylic Acid (2,2,2-trifluoro-1-methyl-ethyl)-amide]
58%	35 nM	CC1(C)CN(C(=O)c2ccc(C#Cc3ccccc3)cn2)CCC1O (racemic) [Example 39, (RS)-(4-Hydroxy-3,3-dimethyl-piperidin-1-yl)-(5-phenylethynyl-pyridin-2-yl)-methanone]
51%	62 nM	O=C(c1ncc(C#Cc2ccccc2)cn1)N1CC(F)(F)C1 [Example 45, (3,3-Difluoro-azetidin-1-yl)-(5-phenylethynyl-pyrimidin-2-yl)-methanone]
29%	11 nM	CN(C(=O)c1ncc(C#Cc2cncc(Cl)c2)cc1F)C(C)(C)C [Example 24, 5-(5-Chloro-pyridin-3-ylethynyl)-3-fluoro-pyridine-2-carboxylic Acid tert-butyl-methyl-amide]

Structure (SMILES)	Emax	EC50
CN(C(=O)c1ncc(C#Cc2cccc(F)c2)cn1)C(C)(C)C [Example 12, 5-(3-Fluoro-phenylethynyl)-pyrimidine-2-carboxylic Acid tert-butyl-methyl-amide]	55%	23 nM
CN(C(=O)c1ccc(C#Cc2cncc(Cl)c2)cn1)C(C)(C)C [Example 7, 5-(5-Chloro-pyridin-3-ylethynyl)-pyridine-2-carboxylic Acid tert-butyl-methyl-amide]	33%	17 nM

Reference: US8772300B2, “Phenyl or pyridinyl-ethynyl derivatives” (Hoffmann-La Roche Inc., priority 2011, dated 2014)
